Assay [1] has as its system IgG and IgM. Put plainly: Amount of antibodies formed in rats, PHA (phytohemaglutinin) reaction. In kind it is in vivo, rats of wistar strain. The method, then: (§1) Effects on the formation of homocytotropic antibodies in rats
(§2) An experiment was carried out in accordance with the Tada and Okumura's method (J. Immunol., Vol. 106, p 1002, 1971).
(§3) Groups each consisting of 8-9 rats of wistar strain were used in this experiment.
(§4) As shown in Tables 2-5, to the four legs of the rats were injected 1 mg of dinitrophenylated extract of ascaris suum (DNP-As) as protein and 10^10 cells of vaccinum pertussis (B. Pertussis) for sensitization, after which the compounds of this invention were administered to the injected rats for 5 days. Eight to nine days after the sensitization, bloodletting was effected on these rats to collect their serum for estimating the amount of antibodies formed using passive cutaneous anaphylaxis (PCA) reactions and phytohemaglutinin (PHA) reactions.
(2) Estimation of the amount of antibodies by PHA reaction:
The collected serum was diluted in various concentrations and incubated with sheep red blood cells coupled with DNP-As using bis-diazoated benzydine to determine the dilution of the serum which induced the minimum hemaglutination. […]

Assay [2] relates to IgE antibodies. The experiment in a line: Formation of homocytotropic antibodies in mice, PCA reaction. The conditions noted are these: 100 mg/Kg/day for 5 days. In kind it is in vivo, mice (BALB/c strain), female. The method, then:
The collected serum was diluted in various concentrations and intradermally injected to other rats. Forty-eight (48) hours after the injection, 2 mg of DNP-As as protein and 0.5 ml of a 1% Evans Blue were intravenously injected into these rats to determine the dilution of the serum which induced the minimum extravasted dye. It should be noted that the symbols "*" and "**" in the following Tables indicate significant differences at risks of 5% and 1%, respectively.
(§5) Effects on the formation of homocytotropic antibodies in mice
(§6) Groups each consisting of 5 female mice (BALB/c strain) were used in this experiment. The mice were sensitized with 10 μg of DNP-As as protein and 3 mg of Al(OH)3, after which the test compound was administered to the sensitized mice for 5 days (at a dose of 100 mg/Kg/day). After the sensitization, a sample of serum was collected from the mice and treated in the same manner as in Experiment 1 to determine the amount of antibodies formed. […]

Assay [3] relates to IgG and IgM. Put plainly: Amount of antibodies formed in mice, PHA reaction. In kind it is in vivo, mice (BALB/c strain), female. As to conditions: 100 mg/Kg/day for 5 days. The procedure:
The collected serum was diluted in various concentrations and incubated with sheep red blood cells coupled with DNP-As using bis-diazoated benzydine to determine the dilution of the serum which induced the minimum hemaglutination.
as §5, §6

The subject of assay [4] is IgE antibodies. The experiment in a line: Formation of homocytotropic antibodies in rats, PCA (passive cutaneous anaphylaxis) reaction. The format is in vivo, rats of wistar strain. The procedure:
as §1, §2, §3, §4
(1) Estimation of the amount of antibodies by PCA reaction:
The collected serum was diluted in various concentrations and intradermally injected to other rats. Forty-eight (48) hours after the injection, 2 mg of DNP-As as protein and 0.5 ml of a 1% Evans Blue were intravenously injected into these rats to determine the dilution of the serum which induced the minimum extravasted dye. It should be noted that the symbols "*" and "**" in the following Tables indicate significant differences at risks of 5% and 1%, respectively. […]

Setting [5] is: Table 5 right half, hypodermic administration, serum 8 days after sensitization, control 3235.9 (2454.7-4265.8).
Where [6] appears, read: Table 7, oral, serum 10 days after sensitization, control 537.0 (436.5-660.7).
[7] abbreviates: Table 10, oral, serum 10 days after, control 125.9 (95.5-166.0).
Setting [8] is: Table 11, hypodermic, serum 10 days after, control 109.7 (95.5-125.9).
Where [9] appears, read: Table 11, hypodermic, serum 37 days after, control 1071.5 (871.0-1318.3).
Where [10] appears, read: Table 3 right half, hypodermic administration, serum 8 days after sensitization, control 269.2 (218.8-331.1).
Setting [11] is: Table 11, hypodermic, serum 9 days after, control 380.2 (269.2-537.0).
The mark [12] stands for this setting: Table 4, oral administration, serum 8 days after the sensitization, control 320 (270-370).
Setting [13] is: Table 6, oral, serum 10 days after sensitization, control 256 ± 128.
Where [14] appears, read: Table 6, oral, serum 21 days after sensitization, control 1024 ± 0.
[15] abbreviates: Table 6, oral, serum 30 days after sensitization, control 299 ± 43.
[16] abbreviates: Table 2, abdominal and oral administration, 5 days, serum 8 days after sensitization, control 237 (169-337).
Where [17] appears, read: Table 2, abdominal and oral administration, 5 days, serum 9 days after sensitization, control 169 (119-223).

`CCCCCOC1(CO)OCC(O)C(O)C1O` [Compound No. 11, n-pentyl-α-L-sorbopyranoside]: the “PHA of rat: dilution of the serum which induced the minimum hemaglutination” value (shortened to “PHA of rat”) with IgG and IgM [1] (setting [5]) was 3467.4 (2630.3-4570.8). Further, the “PCA of mice (serum dilution)” value is listed as 501.2 in the assay on IgE antibodies [2] (setting [6]) and 177.83 in the assay with IgE antibodies [2] (Table 9, hypodermic, serum 37 days after, control 3467.37 (2013.72-3767.04)). For the same compound, the “PHA of mice (serum dilution)” value with IgG and IgM [3] (setting [7]) is 177.8; in the assay with IgG and IgM [3] (Table 11, hypodermic, serum 9 days after, control 380.2 (269.2-537.0), 100 mg/kg/day), 354.8 (288.4-457.1); in the assay with IgG and IgM [3] (setting [8]), 109.7 (83.2-144.5); in the assay with IgG and IgM [3] (setting [9]) it was 1621.8 (1318.3-1995.3). Also, the “PCA of rat: dilution of the serum which induced the minimum extravasted dye” value (“PCA of rat” below) in the assay on IgE antibodies [4] (setting [10]) is 154.9 (134.9-177.8).
For the compound `CCCCCCOC1(CO)OCC(O)C(O)C1O` [Compound No. 13, n-hexyl-α-L-sorbopyranoside], in the assay with IgG and IgM [1] (setting [5]), the “PHA of rat” value was 4265.8 (2630.3-6918.3). For the same compound, the “PCA of mice (serum dilution)” value was determined as 380.2 in the assay on IgE antibodies [2] (Table 8, hypodermic, serum 9 days after, control 708.0 (575.4-871.0)); 708.0 in the assay on IgE antibodies [2] (Table 8, hypodermic, serum 10 days after, control 537.0 (380.2-758.6)); 3235.9 with IgE antibodies [2] (Table 8, hypodermic, serum 37 days after, control 2818.4 (1862.1-4265.8)). Also, the “PHA of mice (serum dilution)” value in the assay with IgG and IgM [3] (setting [7]) was 109.7; with IgG and IgM [3] (setting [11]), 125.9 (83.2-190.6); with IgG and IgM [3] (setting [8]), 102.3 (89.1-117.5); with IgG and IgM [3] (setting [9]) it was 1148.2 (758.6-1737.8).
As to `CCCCCCOC1(CO)OCC(O)C(O)C1O` [Compound No. 6, n-hexyl-β-D-fructopyranoside], the “PHA of rat” value in the assay on IgG and IgM [1] (setting [12]) was determined as 810. Further, the “PCA of mice (serum dilution)” value with IgE antibodies [2] (setting [13]) worked out at 320; in the assay on IgE antibodies [2] (setting [14]), 288; in the assay on IgE antibodies [2] (setting [15]) it was 240. Moreover, the “PCA of rat” value with IgE antibodies [4] (setting [16]) is listed as 97.0; in the assay with IgE antibodies [4] (setting [17]), 147.
Take `O=P1(N(CCCl)CCCl)NCCCO1` (stereo not shown) [Cyclophosphamide, reference compound]: the “PCA of mice (serum dilution)” value is reported as 214 ± 103 with IgE antibodies [2] (setting [13]), 561 ± 71 in the assay with IgE antibodies [2] (setting [14]) and 368 ± 146 in the assay on IgE antibodies [2] (setting [15]). The “PCA of rat” value in the assay with IgE antibodies [4] (setting [17]) was found to be 16.0.
Turning to `CC(C)CCOC1(CO)OCC(O)C(O)C1O` [Compound No. 5, isopentyl-β-D-fructopyranoside], the “PCA of mice (serum dilution)” value is 316 ± 86 in the assay on IgE antibodies [2] (setting [13]), 480 ± 142 in the assay on IgE antibodies [2] (setting [14]) and 448 ± 64 in the assay with IgE antibodies [2] (setting [15]). The “PCA of rat” value in the assay with IgE antibodies [4] (setting [17]) is 90.5.
With `CC(C)CCOC1(CO)OCC(O)C(O)C1O` [Compound No. 12, isopentyl-2-L-sorbopyranoside], the “PHA of rat” value with IgG and IgM [1] (setting [5]) was 6025.6 (4897.8-7413.1). Besides, in the assay with IgE antibodies [2] (setting [6]), the “PCA of mice (serum dilution)” value amounted to 269.2. The “PHA of mice (serum dilution)” value in the assay on IgG and IgM [3] (setting [7]) is reported as 109.7; with IgG and IgM [3] (setting [11]), 218.8 (109.7-436.5); in the assay on IgG and IgM [3] (setting [8]) it was 144.5 (125.9-166.0); with IgG and IgM [3] (setting [9]) it was 1230.3 (871.0-1737.8). For the same compound, in the assay with IgE antibodies [4] (setting [10]), the “PCA of rat” value is 234.4 (204.2-269.2).
For the compound `CC(C)COC1(CO)OCC(O)C(O)C1O` [Compound No. 3, isobutyl-β-D-fructopyranoside], the “PHA of rat” value with IgG and IgM [1] (setting [12]) was found to be 630. The “PCA of mice (serum dilution)” value is recorded as 118 ± 37 in the assay with IgE antibodies [2] (setting [13]), 563 ± 125 in the assay on IgE antibodies [2] (setting [14]) and 256 ± 129 in the assay on IgE antibodies [2] (setting [15]). Also, the “PCA of rat” value came out at 73.5 in the assay with IgE antibodies [4] (setting [16]) and 97.0 in the assay on IgE antibodies [4] (setting [17]).
Take `CCCCOC1(CO)OCC(O)C(O)C1O` [Compound No. 2, n-butyl-β-D-fructopyranoside]: the “PHA of rat” value in the assay on IgG and IgM [1] (setting [12]) turned out to be 600. The entries for the “PCA of rat” value with IgE antibodies [4] (setting [16]) and in the assay on IgE antibodies [4] (setting [17]) were 147 and 84.4, respectively.

The values above are taken from patent publication US4395405A, “Alkyl-ketohexopyranoside derivatives and method of use” (Hisamitsu Pharmaceutical Co., Inc., priority 1979, dated 1983).
